{"source": "patent US20250127740A1", "about": "“COMPOSITION CONTAINING 3-HYDROXYANTHRANILIC ACID AND COMPOUNDS THAT ALTER IRON HOMEOSTASIS AND METHOD OF ITS USE” (priority 2021, published 2025)", "key": {"P. aeruginosa [1]": {"test_system": "P. aeruginosa", "assay": "Inhibition of P. aeruginosa growth in liquid media (OD 600 nm) and CFUs on solid media", "format": "cell-based", "details": "different dosages, single compound", "procedure": "(§1) 3HAA was tested for its ability to negatively impact bacterial growth. 3HAA was tested at different dosages for inhibition of E. coli and P. aeruginosa growth in liquid media (measured by optical density at 600 nm) and colony forming units (CFUs) on solid media.\n(§2) Deferoxamine (DFO) was also tested for its ability to impact bacterial growth. Deferoxamine was tested at different dosages for inhibition of E. coli and P. aeruginosa growth in liquid media (measured by optical density at 600 nm) and CFUs on solid media."}, "E. coli [2]": {"test_system": "E. coli", "assay": "Colony size of E. coli on plates", "format": "cell-based", "details": "for effect on colony size (E. coli): 1 mM 3HAA or 8 mM FAC alone", "description": "To test the effects of 3HAA, DFO and FAC on colony size, colony size was measured for E. coli in plates containing 1 mM 3HAA, 15 uM DFO, and 8 mM FAC alone and in combination."}, "E. coli [3]": {"test_system": "E. coli", "assay": "Pre-treatment of E. coli in liquid media, then colony count on DFO+3HAA plates", "format": "cell-based", "details": "pretreatment 1 mM 3HAA or 15 uM DFO, 16 hr at 37 degrees", "procedure": "E. coli inoculates were grown in liquid media containing either control (no additives), 1 mM 3HAA or 15 uM DFO for 16 hr at 37 degrees with shaking. The cultures were spotted to either Control plates (no additives) or plate containing DFO+3HAA and left to dry at room temperature. After incubated at 37 degrees for 16 hours, colonies were counted."}, "E. coli [4]": {"test_system": "E. coli", "format": "cell-based", "details": "different dosages; liquid media OD 600 nm and CFUs on solid media; single compound", "procedure": "as §1, §2"}, "P. aeruginosa [5]": {"test_system": "P. aeruginosa", "assay": "Colony formation (CFUs) of P. aeruginosa on culture plate", "format": "cell-based", "details": "1 mM 3HAA and 15 uM DFO alone or in combination", "procedure": "To test the effects of 3HAA and DFO on colony formation of P. aeruginosa, 1 mM 3HAA and 15 uM DFO alone or in combination were added to culture plate containing P. aeruginosa."}, "E. coli [6]": {"test_system": "E. coli", "assay": "Colony formation (CFUs) of E. coli on culture plate", "format": "cell-based"}, "bacterial growth": {"test_system": "bacterial growth", "assay": "Growth lag-time in liquid media", "format": "cell-based", "details": "1 mM 3HAA, 15 uM DFO, alone or combined", "procedure": "By contrast, 1 mM 3HAA alone increased lag-time by 6% individually. 15 uM DFO alone increased lag-time by 4% individually. Combination of 1 mM 3HAA with 15 uM DFO provided multiple fold impact on growth inhibition that is statistically significant to either single treatment alone."}, "C. elegans": {"test_system": "C. elegans", "format": "in vivo", "details": "added to culture medium of haao-1 knockout worms (elevated endogenous 3HAA)", "text": "Using the haao-1 knockout strain exposes the animals, but not their bacterial food source, to 3HAA."}, "E. coli infection": {"test_system": "E. coli infection", "assay": "Infection of C. elegans challenged with fluorescently labeled E. coli", "format": "in vivo", "details": "fluorescence microscopy over 7 days", "text": "Infection was monitored using fluorescence microscopy over 7 days. Heatmap of infection progression of individual animals over days—purple 32 not infected, red=high infection."}, "[7]": {"details": "1 mM 3HAA and 8 mM FAC alone or in combination"}}, "data": [{"compound": "Nc1c(O)cccc1C(=O)O", "note": "[3HAA, 3-hydroxyanthanilic acid]", "values": [{"measurement": "impact on growth of P. aeruginosa", "setting": "P. aeruginosa [1]", "result": "negatively affects growth of both E. coli and P. aeruginosa, but only at high doses"}, {"measurement": "effect on colony size (E. coli)", "setting": "E. coli [2]", "result": "increased colony size"}, {"measurement": "sensitization of bacteria to the 3HAA and DFO combination by pretreatment", "setting": "E. coli [3]", "result": "sensitizes bacteria to the combination of 3HAA and DFO"}, {"measurement": "impact on growth of E. coli", "setting": "E. coli [4]", "result": "negatively affects growth of both E. coli and P. aeruginosa, but only at high doses"}, {"measurement": "impact on colony formation (P. aeruginosa)", "setting": "P. aeruginosa [5]", "result": "neither affected colony formation alone"}, {"measurement": "impact on colony formation (E. coli)", "setting": "E. coli [6]; [7]", "result": "no significant impact was observed"}, {"measurement": "impact on colony formation (E. coli)", "setting": "E. coli [6]; 1 mM 3HAA or 15 uM DFO alone", "result": "Neither 1 mM 3HAA nor 15 uM DFO alone showed significant impact"}, {"measurement": "increase in growth lag-time", "setting": "bacterial growth", "result": 6, "unit": "%"}]}, {"compound": "CC(=O)N(O)CCCCCNC(=O)CCC(=O)N(O)CCCCCNC(=O)CCC(=O)N(O)CCCCCN", "note": "[DFO, deferoxamine, reference compound]", "values": [{"measurement": "decrease of colony size / colony area (E. coli)", "setting": "E. coli [2]; 1 mM 3HAA, 15 uM DFO, 8 mM FAC, alone or in combination", "result": "~8", "unit": "%"}, {"measurement": "toxicity to C. elegans relative to wild type animals", "setting": "C. elegans", "result": "neither the combination of DFO and elevated 3HAA (haao-1) nor the combination of FAC with elevated 3HAA (haao-1) were toxic"}, {"measurement": "increase in growth lag-time", "setting": "bacterial growth", "result": 4, "unit": "%"}]}, {"compound": "ferric ammonium citrate [FAC]", "values": [{"measurement": "impact on growth of P. aeruginosa", "setting": "P. aeruginosa [1]", "result": "very little impact"}, {"measurement": "effect on colony size (E. coli)", "setting": "E. coli [2]", "result": "increased colony size"}, {"measurement": "impact on growth of E. coli", "setting": "E. coli [4]", "result": "very little impact"}, {"measurement": "protection from E. coli infection", "setting": "E. coli infection; haao-1 knockout worms (high endogenous 3HAA)", "result": "This protection was enhanced"}, {"measurement": "protection from E. coli infection", "setting": "E. coli infection; wild type worms", "result": "protected from infection"}, {"measurement": "impact on colony formation (E. coli)", "setting": "E. coli [6]; [7]", "result": "no significant impact was observed"}]}]}
